Measured values: patent US20180362485A1, “N-HYDROXYFORMAMIDE COMPOUNDS AND COMPOSITIONS COMPRISING THEM FOR USE AS BMP l, TLL1 AND/OR TLL2 INHIBITORS” (GlaxoSmithKline Intellectual Property (No. 2) Limited, priority 2015, published 2018)

Columns and labels:
[1] = system: deposition of mature collagen; assay: Cell-based inhibition assay of mature collagen deposition (immunostaining); details: Cardiac fibroblast; human cardiac fibroblasts, immunostaining of mature collagen I; read-out: pIC50, mature collagen cellular inhibition assay (converted)
Description: An adaptation of the collagen deposition assay described by Chen, C. Z. C., et al., British Journal of Pharmacology, 2009, 158, 1196-1209 is used to examine effect of compounds on procollagen I processing and collagen deposition. In the adapted assay, human cardiac fibroblasts are utilized. Processing of procollagen I is determined by a PICP ELISA assay and deposition of mature collagen is determined by immunostaining.
Human cardiac fibroblasts are cultured and maintained until passage 6 in FGM-3 media (Lonza, #CC-3132) in a 37° C. humidified incubator with 5% CO2. They are then seeded in 96-well black wall, clear bottom plates at 10,000 to 15,000 cells per well in eagle's minimum essential media (EMEM, ATCC #30-2003) containing 10% fetal bovine serum (FBS, Life Technologies #10082147), 1% Glutamax (Life Technologies #35050061) and 1% Penicillin and Streptomycin (Life Technologies #15070063). These cultures are placed in 37° C. incubator. The next day, media is removed by aspiration and cells are rinsed with phosphate buffered saline. Crowding media (also called ficoll media) is prepared by adding 112.5 mg/ml of ficoll70 and 75 mg/ml ficoll400 (GE healthcare #17-0310-10 and 17-0300-10, respectively), 100 μM ascorbic acid, 1% Glutamax and 1% Penicillin and Streptomycin to EMEM media. Test compounds (dissolved in DMSO) are diluted into crowding media and then added to the cells. Final concentration of DMSO in crowding media is less than 0.3%. Cells are treated for 24 to 48 hr in a 37° C. incubator. At the end of the treatment period, cell media are collected. The level of PICP in the media is determined by a PICP ELISA assay (Quidel #8003) following the manufacturer's protocol. Potencies of test compounds are calculated by fitting PICP levels, relative to untreated controls, to log (inhibitor) vs. response equation using Graphpad Prism software 5.0 and expressed as pIC50.
For some compounds, deposition of mature collagen is measured by immunostaining in addition to PICP levels. At the end of the treatment period, cells on culture plate are fixed with 100% methanol (prechilled to −20° C.) for 10 min. Then the cells are immunostained with mouse anti-mature collagen I antibody (1:500 dilution, Sigma#C2456), anti-mouse secondary antibody Alexa647 (1:500 dilution, Invitrogen#A21236) and Hoechst (for nuclei, 2 μg/ml, Invitrogen#H3596). Fluorescent image acquisition is done using the Operetta High Content Imaging system (Perkin Elmer). For each image field, the intensity of mature collagen staining is normalized with the number of nuclei. Normalized collagen levels are used to calculate the potency of test compounds with Graphpad Prism software, as described above.

human TLL2 = biological target: T1, human TLL2 (Homo sapiens, UniProt Q9Y6L7); assay: Enzyme inhibition assay for human TLL2; type: biochemical; details: 18 nM TLL2, 5 μM promyostatin peptide substrate; read-out: pIC50, TLL2 enzyme inhibition assay (converted)
T1 construct: amino acids 26-1015 of human TLL2 (NM_012465); made in house
T1 sequence (Q9Y6L7 150-1015): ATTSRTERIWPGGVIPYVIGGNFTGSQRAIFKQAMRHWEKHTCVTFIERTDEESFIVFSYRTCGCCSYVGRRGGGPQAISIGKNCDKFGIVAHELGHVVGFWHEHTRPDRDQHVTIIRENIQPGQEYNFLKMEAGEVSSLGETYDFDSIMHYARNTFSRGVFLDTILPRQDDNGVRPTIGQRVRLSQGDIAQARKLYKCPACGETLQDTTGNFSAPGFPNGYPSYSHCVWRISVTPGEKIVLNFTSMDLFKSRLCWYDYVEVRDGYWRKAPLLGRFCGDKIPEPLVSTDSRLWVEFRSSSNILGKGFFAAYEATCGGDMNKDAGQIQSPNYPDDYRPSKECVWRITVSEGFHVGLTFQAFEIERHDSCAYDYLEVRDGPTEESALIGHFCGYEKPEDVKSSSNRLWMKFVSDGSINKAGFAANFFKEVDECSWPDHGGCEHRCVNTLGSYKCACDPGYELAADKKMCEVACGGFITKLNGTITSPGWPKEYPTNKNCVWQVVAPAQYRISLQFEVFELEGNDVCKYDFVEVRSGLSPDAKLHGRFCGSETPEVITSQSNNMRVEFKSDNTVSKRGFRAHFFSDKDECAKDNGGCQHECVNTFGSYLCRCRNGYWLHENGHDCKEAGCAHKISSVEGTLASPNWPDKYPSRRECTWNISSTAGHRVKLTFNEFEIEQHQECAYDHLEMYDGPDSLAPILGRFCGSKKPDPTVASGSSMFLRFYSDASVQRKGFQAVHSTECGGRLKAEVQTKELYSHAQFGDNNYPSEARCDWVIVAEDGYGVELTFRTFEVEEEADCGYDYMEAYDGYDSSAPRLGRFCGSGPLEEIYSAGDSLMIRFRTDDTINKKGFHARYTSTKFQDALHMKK
Excerpt: Buffer components are purchased from Sigma-Aldrich (St. Louis, Mo.) or an equivalent supplier. The promyostatin peptide substrate is custom synthesized by American Peptide Company (Sunnyvale, Calif.) using the myostatin protein sequence (Uniprot accession number 014793) surrounding the cleavage site reviewed in Hopkins, D. R., et al., 2007 Matrix Biology, 26, 508-523. The procollagen peptide substrate used in the high enzyme BMP1 cleavage assay is custom synthesized by 21st Century Biochemicals (Marlboro, Mass.) using the procollagen Iα protein sequence (Uniprot accession number P02452) surrounding the cleavage site reviewed in Hopkins, D. R., et al., 2007 Matrix Biology, 26, 508-523.
The DNA sequence encoding amino acids 26-1015 of human TLL2 (NM_012465) is PCR amplified from DNA template with the human RAGE signal sequence at the N-terminus and Avi-6×His epitope tags at the C-terminus ([…]). […]
Inhibition of human TLL1 and TLL2 recombinant enzymes is measured in 10 ul endpoint assays in 384-well format using the same promyostatin peptide substrate employed in the above Enzyme Inhibition Assay for human BMP1. […] TLL1 and TLL2 reactions are quenched with 5 μl of 0.5 M EDTA and plates are read on a ViewLux (Perkin Elmer) multilabel plate reader using a 480 nm excitation filter and 540 nm emission filter. […]

SMILES: CCCCC[C@@H](C(=O)NCNC(=O)c1ccc(-c2ccccc2)o1)[C@@H](CC)N(O)C=O [WO2015/104684 Example 24, N—(((R)-2-((R)-1-(N-hydroxyformamido)propyl)heptanamido)methyl)-5-phenylfuran-2-carboxamide]
- IC50 [1]: < 1 µM
- IC50 (human TLL2): < 0.794 µM
